# Measurements taken from US8367607B2, “Oxyntomodulin peptide analogue” (Eli Lilly and Company, priority 2009, dated 2013).
# Marks after values point to notes of the source that are not given here.
# How the values were obtained:
# [1] = Intraperitoneal glucose tolerance test in lean mice; format: in vivo, C57BL/6 mice; settings: 16 hours before test
# Method: Nine week old male C57BL/6 mice are used in the study Animals are randomized into groups based on fed body weight. […] Food is removed at the time of injection of peptide or vehicle. At time 0, animals are given 2 g/kg dextrose by IP injection. Blood is collected by tail vein bleeding at 0, 3, 6, 12 and 30 minutes after glucose challenge. Glucose concentration is measured by glucometer. Insulin is measure by Mesoscale.
# [2] = Oral glucose tolerance test after 2-week treatment in DIO mice; format: in vivo; settings: for Glucose AUC (0 to 120 min), oral glucose load, MEAN: DIO mice
# Method: (§1) Fifty-six hours after the last injection as described in Example 7 (Study 1) in DIO mice, mice are fasted for 16 hours prior to the start of the glucose tolerance test. At time 0, animals are given 2 g/kg dextrose by oral gavage or intraperitoneal (IP) injection. Blood is collected by tail vein bleeding at 0, 15, 30, 60 and 120 minutes after glucose challenge. Glucose concentration is measured by glucometer.
# [3] = Food intake, body weight and body composition in DIO mice, Study 1: two week treatment; format: in vivo, diet-induced obese (DIO) C57BL/6 mice
# Method: Three to four months old male diet-induced obese (DIO) C57BL/6 mice are used. Animals are individually housed in a temperature-controlled (24° C.) facility with a 12 hour light/dark cycle (lights on 22:00), and have free access to food and water. […] Body weight and the weight of food plus the hopper are measured at the same time. Food consumed in the preceding 24 hours is calculated by subtracting current weight of food plus the hopper from that of the previous day. Absolute changes in body weight are calculated by subtracting the body weight of the animal prior to the first injection. […] Fat free mass is calculated by subtracting fat mass from total body weight.
# [4] = Food intake, body weight, body composition, calorimetry and plasma markers in DIO mice, Study 2: four week treatment; format: in vivo, diet-induced obese (DIO) C57BL/6 mice
# Method: Three to four months old male diet-induced obese (DIO) C57BL/6 mice are used. Animals are individually housed in a temperature-controlled (24° C.) facility with a 12 hour light/dark cycle (lights on 22:00), and have free access to food and water. After 2 weeks acclimation to the facility, mice are randomized to treatment groups (n=8-10/group), each group having similar mean body weight and fat mass. Before the experiment, mice are subcutaneously (sc) injected with vehicle solution and weighed for 2 days to acclimate them to the procedures.
# Body weight and the weight of food plus the hopper are measured at the same time. Food consumed in the preceding 24 hours is calculated by subtracting current weight of food plus the hopper from that of the previous day. Absolute changes in body weight are calculated by subtracting the body weight of the animal prior to the first injection. On days 1, 14 and 28 total fat mass is measured by nuclear magnetic resonance (NMR) using an Echo Medical System (Houston, Tex.) instrument. Fat free mass is calculated by subtracting fat mass from total body weight.
# [5] = Acute effects on plasma FGF21, triglyceride levels and hepatic gene expression in DIO mice; format: in vivo, diet-induced obese C57BL/6 mice; settings: single sc injection 22.5 nmole/kg
# Method: The day before the study, mice are randomized to treatment groups (N=7/group), each group having similar mean body weight. […] Food is removed at the time of injection of peptide or vehicle. The following morning (approximately 10 AM), the animals are sacrificed to collect plasma and liver tissue. Glucose and triglyceride concentrations are measured using a Hitachi blood chemistry analyzer. Gene expression is determined by RT-PCR. Malonyl-CoA and acetyl-CoA levels are measured by HPLC.
# [6] = Intraperitoneal glucose tolerance test after 4-week treatment in DIO mice; format: in vivo; settings: for Glucose AUC (0 to 120 min), intraperitoneal glucose load, MEAN: after 4 week treatment, DIO mice
# Method: as §1
# An intraperitoneal glucose tolerance test (IPGTT) is performed on day 29, 3 days after the last injection as described in Example 7 (Study 2) in DIO mice.
# [7] = Oral glucose tolerance test (OGTT) in ob/ob mice; format: in vivo; settings: single injection 7.5 nmole/kg
# Method: Two to three months old male ob/ob mice are individually housed in a temperature-controlled (24° C.) facility with a 12 hour light/dark cycle (lights on 2200 hours), and have free access to the standard chow and water. After at least 2 weeks of acclimation to the facility, 3-hours fasting blood glucose is measured by tail vein bleeding at 9 AM. Mice with blood glucose under 180 mg/dL are not used. Remaining animals are randomized to treatment groups (N=6-7/group), each group having similar average blood glucose level. The mice are given access to food until the time of injection. […] Food is removed at the time of injection. An OGTT (Table 7) or IPGTT (Table 8) is performed 16 hours after the peptide injection. At time 0, animals are given 2 g/kg dextrose by oral gavage (Table 7) or intraperitoneal injection (Table 8). Blood is collected by tail vein bleeding at 0, 15, 30, 60 and 120 minutes after glucose challenge. Glucose concentration is measured by glucometer.
# [8] = high dose, completion of 4-week study
substance,measurement,setting,value
His-(Aib)-Gln-Gly-Thr-Phe-Thr-Ser-Asp-Tyr-Ser-Lys-Tyr-Leu-Asp-Ser-Lys-Lys-Ala-Gln-Glu-Phe-Val-Gln-Trp-Leu-Leu-Asn-(Aib)-Gly-Arg-Asn-Arg-Asn-Asn-Ile-Ala-Cys(20 kDa PEG)-Cys(20 kDa PEG),"Glucose AUC (0 to 30 min), IPGTT in lean mice, MEAN",[1]; 5 nmole/kg,7059 mg·min/dL
same,"Insulin AUC (0 to 30 min), IPGTT in lean mice, MEAN",[1]; 5 nmole/kg,30.67* ng * min/mL
same,"Glucose AUC (0 to 30 min), IPGTT in lean mice, MEAN",[1]; 15 nmole/kg,6103* mg * min/dL
same,"Insulin AUC (0 to 30 min), IPGTT in lean mice, MEAN",[1]; 15 nmole/kg,45.26* ng * min/mL
same,"Glucose AUC (0 to 120 min), oral glucose load, MEAN",[2]; 7.5 nmole/kg,17722* mg * min/dL
same,"Glucose AUC (0 to 120 min), oral glucose load, MEAN",[2]; 15 nmole/kg,17518* mg * min/dL
same,blood glucose at all time points before and after the oral glucose challenge versus vehicle,[2]; all doses,significantly lowered
same,"cumulative weight loss, reduction compared to the vehicle group","[3]; 7.5 nmole/kg every 3 days, 2 weeks",about 9%
same,Fat mass loss (g fat weight change for 14 days),[3]; 7.5 nmole/kg sc every 3 days,-2.2 ± 0.3 g
same,Overall weight loss (g weight change for 14 days),[3]; 7.5 nmole/kg sc every 3 days,-3.1 ± 0.4 g
same,Total food intake (g total for 14 days),[3]; 7.5 nmole/kg sc every 3 days,35.0 ± 0.8 g
same,vehicle controlled cumulative weight loss,"[3]; 15 nmole/kg every 3 days, 2 weeks",18%
same,Fat mass loss (g fat weight change for 14 days),[3]; 15 nmole/kg sc every 3 days,-3.9 ± 0.7 g
same,Overall weight loss (g weight change for 14 days),[3]; 15 nmole/kg sc every 3 days,-6.1 ± 0.9 g
same,Total food intake (g total for 14 days),[3]; 15 nmole/kg sc every 3 days,29.8 ± 1.5 g
same,cumulative food intake reduction compared to the vehicle group,"[3]; 15 nmole/kg, end of 2-week study",27%
same,effect on food intake and body weight,"[3]; 7.5 and 15 nmole/kg, 2 weeks",dose-dependent reduction
same,Total food intake (g total for the first 14 days),[4]; 6.7 nmole/kg sc every 3 days,36.0 ± 1.1 g
same,Fat mass loss (g fat weight change for 28 days),[4]; 6.7 nmole/kg sc every 3 days,-0.7 ± 0.2 g
same,Overall weight loss (g weight change for 28 days),[4]; 6.7 nmole/kg sc every 3 days,-2.0 ± 0.4 g
same,weight loss compared with 22.5 nmole/kg dose of the positive control,[4]; 20 nmole/kg,significantly greater weight loss
same,Total food intake (g total for the first 14 days),[4]; 20.0 nmole/kg sc every 3 days,26.1 ± 1.4 g
same,Fat mass loss (g fat weight change for 28 days),[4]; 20.0 nmole/kg sc every 3 days,-7.5 ± 0.7 g
same,Overall weight loss (g weight change for 28 days),[4]; 20.0 nmole/kg sc every 3 days,-11.1 ± 0.9 g
same,"maximal weight reduction, of the initial body weight","[4]; 20 nmole/kg, after 15 days of treatment",about 25%
same,increase of averaged 24-hour energy expenditure versus vehicle,"[4]; 20 nmole/kg, indirect calorimetry, day 21",18%
same,leptin levels versus vehicle treated controls,[4]; [8],significantly reduced
same,plasma adiponectin levels versus vehicle treated controls,[4]; [8],statistically significantly difference
same,cumulative food intake,[4]; high doses (20 nmole/kg),significantly decreased
same,body weight versus positive control group,[4]; lower doses (6.7 nmole/kg),decreased body weight to a similar degree as seen in the positive control group
same,decrease of liver acetyl-CoA concentration versus vehicle control,[5]; DIO mice,39%
same,decrease of liver malonyl-CoA concentration versus vehicle control,[5]; DIO mice,63%
same,decrease of hepatic ChREBP gene expression,[5]; RT-PCR,52%
same,decrease of hepatic PCSK9 gene expression,[5]; RT-PCR,61%
same,increase of hepatic pgc-1a gene expression,[5]; RT-PCR,7 fold
same,induction of hepatic FGF21 gene expression,[5]; RT-PCR,17 fold
same,increase in circulating FGF21,[5]; plasma,6 fold
same,"Glucose AUC (0 to 120 min), intraperitoneal glucose load, MEAN",[6]; 6.7 nmole/kg,30073 mg·min/dL
same,"Glucose AUC (0 to 120 min), intraperitoneal glucose load, MEAN",[6]; 20.0 nmole/kg,19264* mg * min/dL
same,blood glucose at all time points before and after IP glucose challenge versus vehicle,"[6]; high dose of analogue, both doses of positive control, day 29",significantly lowered
same,glucose levels after IP glucose challenge,"[6]; low dose, day 29",little effect
same,blood glucose in ob/ob mice,[7],normalized blood glucose
same,blood glucose levels at all time points after glucose challenge versus vehicle control group,[7]; ob/ob mice,significantly lower
